Results as given in patent US20050191282A1, “Method of cryopreserving pancreatic islet cells” (priority 2004, published 2005).

Columns and labels:
islets = conditions: DMSO as cryoprotectant, compared to freshly isolated islets; cited from earlier work
isolated rat islets [1] = assay: Recovery of intact islets after cryopreservation and thawing (islet counting after Dithizone staining); type: cell-based; design: key: Severe = +++; Mild = +; conditions: 2M DMSO, 3M glycerol, 5% PEG or 10% PVP
Method: (§1) The present invention is based on the hypothesis that the low molecular weight (MW) compounds, DMSO and glycerol, permeate the cell and interact hydrophobically with intracellular proteins thereby perturbing the cyto-skeletal architecture of frozen cells, and diminishing islet cell integrity and function. Isolated rat islets were cultured overnight (16-24 hr) at 37° C., in RPMI medium supplemented with 10% fetal calf serum and 1% mixture of Penicillin/Streptomycin. Using a programmable temperature controller, samples of pre-counted islets were then frozen under liquid nitrogen, in the presence of either 2M DMSO (MW=0.078 kD), 3M glycerol (MW=0.092 kD), 5% polyethylene glycol (PEG, MW=20 kD), or 10% polyvinylpyrrolidone (PVP, MW=40 kD), and stored at −80° C. for 1 week. Following thawing, intact islet recovery was determined by islet counting after Dithizone staining. Islet function was assessed by determination of glucose-stimulated insulin secretion in perifusion experiments with Krebs-Ringer bicarbonate buffer, pH 7.4, containing either basal (3.3 mM) or high (16.7 mM) glucose concentrations. After thawing samples of frozen islets, the mean±SEM % intact islet recovery was higher with PVP compared to DMSO (82±4.6 versus 62.7±3.1% respectively, p<0.005, n=9). […]

isolated rat islets [2] = assay: Glucose-stimulated insulin secretion by perifused islets after cryopreservation; type: cell-based
Method: FIG. 2 graphs glucose stimulation of insulin secretion in islets cryopreserved with different cryoprotectants. After one week of cryopreservation, islets were thawed and cultured overnight before being tested for response to 16.7 mM glucose stimulation. The 16.7 mM glucose stimulated insulin secretion was assessed by normalizing data as percent basal insulin secretion for each group of islets. Data represent mean±SEM.
as §1, with “Isolated rat islets were cultured overnight (16-24 hr) at 37° C., in RPMI medium supplemented with 10% fetal calf serum and 1% mixture of Penicillin/Streptomycin.” left out, “concentrations.” for “concentrations. After thawing samples of frozen islets, the mean±SEM % intact islet recovery was higher with PVP compared to DMSO (82±4.6 versus 62.7±3.1% respectively, p<0.005, n=9).”

Structure (SMILES) | loss in the number and function of islets after thawing (islets) | Fragment (fragmentation of islets after thawing) (isolated rat islets [1]) | function of cryopreserved islets compared to freshly isolated islets (isolated rat islets [2])
C[S+](C)[O-] [DMSO, Dimethylsulfoxide] | 30-50% | +++ | impaired
OCC(O)CO [GLY, glycerol] |  | +++ | impaired
